A short description of assay [1]: Inhibition of jack beans alpha-mannosidase.
A short description of assay [2]: Inhibition of Streptomyces plicatus beta-D-hexosaminidase.

Take `CN(C)c1ccc(-c2cnc(-c3ccc(S(=O)(=O)NCCCCCCN4C[C@H](O)[C@@H](O)[C@H](O)[C@H]4CO)cc3)o2)cc1` [4-(5-(4-(dimethylamino)phenyl)oxazol-2-yl)-N-(6-((2R,3R,4R,5S)-3,4,5-trihydroxy-2-(hydroxymethyl)piperidin-1-yl)hexyl)benzenesulfonamide]: in assay [1], the inhibition constant (Ki) was 65 µM. This lies in the double-digit micromolar range.
Consider `CC(=O)N[C@H]1CN(CCCCCCNS(=O)(=O)c2cccc3c(N(C)C)cccc23)[C@H](CO)[C@@H](O)[C@@H]1O` [N-((3S,4R,5R,6R)-1-(6-(1-(dimethylamino)naphthalene-5-sulfonamido)hexyl)-4,5-dihydroxy-6-(hydroxymethyl)piperidin-3-yl)acetamide], for which the Ki in assay [2] came out at 1.8 µM.

For the origin of these results see BindingDB's records for doi:10.1016/j.bmcl.2006.01.095 (Technische Universität Graz, 2006).
